Counter-ions that a name gives are not always drawn.
Tests used:
Format in all cases: biochemical
AKT1 = molecular target: T1, AKT1 (Homo sapiens, UniProt P31749); assay: AKT Kinase Assay (IMAP fluorescent polarisation) vs AKT1; settings: activated AKT1, FAM Crosstide substrate
T1 construct: purchased SignalChem
Description: (§1) Testing of the compounds was performed using an AKT Kinase Assay:
(§2) Activated AKT isoforms 1, 2 and 3 were assayed utilising a 5′ FAM Crosstide (Seq. GRPRTSSFAEG-OH). The extent of kinase phosphorylation was determined by fluorescent polarisation using IMAP progressive binding reagent, which introduces binding beads which allow the reagent to specifically bind to phosphate residues via covalent co-ordination complex bonds.
(§3) iMAP binding solution stops Crosstide/kinase interaction and specifically binds phosphorylated substrates. The degree of phosphorylation is determined by fluorescent polarisation (excitation 485 nm; emission 528 nm) or the reduction in speed of rotation of the excited substrate.
(§4) The following materials were used in the assay: • a) Activated AKT isoforms (SignalChem.) dissolved in Complete Reaction buffer at a pre-determined concentration selected so that the assay was carried out in the linear range. • b) AKT substrate peptide: FAM Crosstide (R7110) Molecular Devices, diluted in complete reaction buffer. • c) iMAP Progressive Screening Express Kit (R8127) Molecular Devices • d) Complete Reaction Buffer containing 0.1% BSA, 10 mM Tris-HCl, 10 mM MgCl2, 0.05% NaN3 and 0.01% phosphate free BSA, 1 mM DTT • e) Progressive Binding Solution containing 75% Buffer A, 25% Buffer B and low volume Binding Reagent which contains the binding entity for the assay • f) ATP diluted in complete reaction buffer • g) Black polystyrene 384 well assay plates (Nunc). • h) Biotek Synergy 4 Hybrid Plate reader.
(§5) 5 μl of test compound was dissolved in DMSO (Sigma Aldrich) and serially diluted in complete reaction buffer to give a fourteen point half log dose response and plated into 384 well black plates. The compound was incubated at room temperature with activated AKT isoform (5 μl) at the pre-determined concentration, for 45 minutes.
(§6) 2.5 μl of ATP solution mixed with 2.5 μl of AKT substrate peptide (FAM Crosstide (R7110) Molecular Devices) were dispensed into each well and the plate centrifuged at 1000 rpm for 20 seconds to ensure homogenous mixing of reagents. The reaction mix was incubated in the dark for one hour at room temperature.
(§7) The kinase reaction was stopped by the addition of Progressive Binding Solution and the mixture allowed to equilibrate for one hour in the dark, at room temperature.
(§8) The fluorescent polarisation generated in each well was determined using a […] Synergy 4 Hybrid plate reader. In brief, each reaction solution was excited at 485 nm with the emission measured at 528 nm in both the parallel and perpendicular pathway.
(§9) The polarisation value generated in each well was calculated by Gen5 software (Biotek) and the % inhibition of kinase activity compared to vehicle control was calculated via GraphPad Prism. IC50 values for each compound were calculated by non-linear regression analysis using Prism software.
(§10) All plates were internally controlled by two methods. Firstly, by calculating the signal:noise ratio; based on kinase polarisation without inhibitor and polarisation generated by complete reaction buffer in the absence of activated kinase. Secondly by determining IC50 values generated by known inhibitors of the AKT isoforms.

AKT2 = molecular target: T2, AKT2 (Homo sapiens, UniProt P31751); assay: AKT Kinase Assay (IMAP fluorescent polarisation) vs AKT2; settings: activated AKT2, FAM Crosstide substrate
T2 construct: purchased SignalChem
Description: as §1, §2, §3, §4, §5, §6, §7, §8, §9, §10

AKT3 = molecular target: T3, AKT3 (Homo sapiens, UniProt Q9Y243); assay: AKT Kinase Assay (IMAP fluorescent polarisation) vs AKT3; settings: activated AKT3, FAM Crosstide substrate
T3 construct: purchased SignalChem
Description: as §1, §2, §3, §4, §5, §6, §7, §8, §9, §10

T1 sequence (P31749 whole entry): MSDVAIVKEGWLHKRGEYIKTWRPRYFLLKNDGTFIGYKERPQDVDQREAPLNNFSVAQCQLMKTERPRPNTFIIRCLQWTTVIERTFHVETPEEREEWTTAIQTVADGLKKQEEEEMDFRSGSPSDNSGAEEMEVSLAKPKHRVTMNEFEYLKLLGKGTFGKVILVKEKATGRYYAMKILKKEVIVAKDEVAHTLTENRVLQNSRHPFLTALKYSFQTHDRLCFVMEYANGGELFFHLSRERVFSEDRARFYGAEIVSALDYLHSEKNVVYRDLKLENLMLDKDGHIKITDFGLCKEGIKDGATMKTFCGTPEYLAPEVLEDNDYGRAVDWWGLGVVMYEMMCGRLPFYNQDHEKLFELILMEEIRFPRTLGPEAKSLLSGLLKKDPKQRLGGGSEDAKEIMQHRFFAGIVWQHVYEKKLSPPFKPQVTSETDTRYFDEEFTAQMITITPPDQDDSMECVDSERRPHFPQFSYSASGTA
T3 sequence (Q9Y243 whole entry): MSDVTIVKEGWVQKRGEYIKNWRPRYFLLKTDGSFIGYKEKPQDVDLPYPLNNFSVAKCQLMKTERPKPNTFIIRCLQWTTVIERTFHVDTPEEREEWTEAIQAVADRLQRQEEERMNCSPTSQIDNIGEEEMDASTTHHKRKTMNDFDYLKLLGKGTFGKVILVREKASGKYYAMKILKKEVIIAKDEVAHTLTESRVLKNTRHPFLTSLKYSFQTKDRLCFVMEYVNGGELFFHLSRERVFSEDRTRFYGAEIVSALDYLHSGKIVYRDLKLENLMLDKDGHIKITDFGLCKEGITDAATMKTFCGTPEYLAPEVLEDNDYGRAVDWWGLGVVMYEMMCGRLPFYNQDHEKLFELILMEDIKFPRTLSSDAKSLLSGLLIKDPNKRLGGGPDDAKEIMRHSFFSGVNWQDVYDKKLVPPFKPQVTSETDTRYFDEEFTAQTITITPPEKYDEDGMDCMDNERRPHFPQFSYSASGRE
T2 sequence (P31751 whole entry): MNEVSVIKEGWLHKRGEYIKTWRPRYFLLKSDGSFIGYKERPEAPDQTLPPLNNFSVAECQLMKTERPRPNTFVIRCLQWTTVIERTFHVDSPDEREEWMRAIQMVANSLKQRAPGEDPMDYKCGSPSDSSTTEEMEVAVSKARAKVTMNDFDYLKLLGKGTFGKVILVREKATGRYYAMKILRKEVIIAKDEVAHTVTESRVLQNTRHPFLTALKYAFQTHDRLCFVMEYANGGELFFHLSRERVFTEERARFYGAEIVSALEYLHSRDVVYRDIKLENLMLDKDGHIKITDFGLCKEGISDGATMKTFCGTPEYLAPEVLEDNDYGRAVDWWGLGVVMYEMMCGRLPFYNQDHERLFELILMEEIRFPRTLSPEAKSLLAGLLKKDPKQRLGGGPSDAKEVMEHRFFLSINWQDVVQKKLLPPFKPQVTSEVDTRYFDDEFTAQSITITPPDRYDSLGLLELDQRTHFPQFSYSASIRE

Row | IC50 (AKT1) | IC50 (AKT2) | IC50 (AKT3) | Structure (SMILES)
1 | 1000 to 10000 nM | > 10000 nM | > 10000 nM | NC1(c2ccc(-c3c(-c4ccccc4)oc4c(-n5ccccc5=O)nccc4c3=O)cc2)CCC1 [Example 104, 3-[4-(1-Amino-cyclobutyl)-phenyl]-8-(2-oxo-2H-pyridin-1-yl)-2-phenyl-pyrano[2,3-c]pyridin-4-one hydrochloride]
2 | 1000 to 10000 nM | 1000 to 10000 nM | > 10000 nM | COc1cc2oc(-c3ccccc3)c(-c3ccc(C4(N)CCC4)cc3)c(=O)c2cc1C [Example 7, 3-[4-(1-Amino-cyclobutyl)-phenyl]-7-methoxy-6-methyl-2-phenyl-chromen-4-one]
3 | ≤ 1000 nM | ≤ 1000 nM | 1000 to 10000 nM | Cc1n[nH]cc1-c1cccc2c(=O)c(-c3ccc(C4(N)CCC4)cc3)c(-c3ccccc3)oc12 [Example 73, 3-[4-(1-Amino-cyclobutyl)-phenyl]-8-(3-methyl-1H-pyrazol-4-yl)-2-phenyl-chromen-4-one hydrochloride]
4 | ≤ 1000 nM | ≤ 1000 nM | 1000 to 10000 nM | NC1(c2ccc(-c3c(-c4ccccc4)oc4c(-c5cc[nH]n5)cccc4c3=O)cc2)CCC1 [Example 53, 3-[4-(1-Amino-cyclobutyl)-phenyl]-2-phenyl-8-(1H-pyrazol-3-14)-chromen-4-one hydrochloride]
5 | ≤ 1000 nM | ≤ 1000 nM | 1000 to 10000 nM | Cn1cc(-c2cccc3c(=O)c(-c4ccc(C5(N)CCC5)cc4)c(-c4ccccc4)oc23)cn1 [Example 55, 3-[4-(1-Amino-cyclobutyl)-phenyl]-8-(1-methyl-1H-pyrazol-4-yl)-2-phenyl-chromen-4-one hydrochloride]
6 | 1000 to 10000 nM | ≤ 1000 nM | 1000 to 10000 nM | COc1ccc2c(=O)c(-c3ccc(C4(N)CCC4)cc3)c(-c3ccccc3)oc2c1C#N [Example 12, 3-[4-(1-Amino-cyclobutyl)-phenyl]-7-methoxy-4-oxo-2-phenyl-4H-chromene-8-carbonitrile]
7 | 1000 to 10000 nM | 1000 to 10000 nM | > 10000 nM | NC1(c2ccc(-c3c(-c4ccccc4)oc4ccc(F)cc4c3=O)cc2)CCC1 [Example 1, 3-[4-(1-Amino-cyclobutyl)-phenyl]-6-fluoro-2-phenyl-chromen-4-one]
8 | ≤ 1000 nM | ≤ 1000 nM | 1000 to 10000 nM | Cn1cc2c(ccc3c(=O)c(-c4ccc(C5(N)CCC5)cc4)c(-c4ccccc4)oc32)n1 [Example 61, 3-[4-(1-Amino-cyclobutyl)-phenyl]-8-methyl-2-phenyl-8H-pyrano[2,3-e]indazol-4-one]
9 | > 10000 nM | 1000 to 10000 nM | > 10000 nM | NC1(c2ccc(-c3c(-c4ccccc4)oc4cc(OC(F)(F)F)ccc4c3=O)cc2)CCC1 [Example 24, 3-[4-(1-Amino-cyclobutyl)-phenyl]-2-phenyl-7-trifluoromethoxy-chromen-4-one]
10 | > 10000 nM | 1000 to 10000 nM | > 10000 nM | COc1cc2c(=O)c(-c3ccc(C4(N)CCC4)cc3)c(-c3ccccc3)oc2cc1Br [Example 26, 3-[4-(1-Amino-cyclobutyl)-phenyl]-7-bromo-6-methoxy-2-phenyl-chromen-4-one]
11 | 1000 to 10000 nM | 1000 to 10000 nM | > 10000 nM | NC1(c2ccc(-c3c(-c4ccccc4)oc4[nH]c(=O)ccc4c3=O)cc2)CCC1 [Example 36, 3-[4-(1-Amino-cyclobutyl)-phenyl]-2-phenyl-8H-pyrano[2,3-b]pyridine-4,7-dione hydrochloride]
12 | 1000 to 10000 nM | ≤ 1000 nM | 1000 to 10000 nM | NC1(c2ccc(-c3c(-c4ccccc4)oc4c(OC(F)F)nccc4c3=O)cc2)CCC1 [Example 32, 3-[4-(1-Amino-cyclobutyl)-phenyl]-8-difluoromethoxy-2-phenyl-pyrano[2,3-c]pyridin-4-one]
13 | ≤ 1000 nM | ≤ 1000 nM | > 10000 nM | NC1(c2ccc(-c3c(-c4ccccc4)oc4c(ccc5[nH]c(=O)oc54)c3=O)cc2)CCC1 [Example 91, 7-[4-(1-Amino-cyclobutyl)-phenyl]-8-phenyl-3H-chromeno[7,8-d]oxazole-2,6-dione]

— US8546376B2, “Pharmaceutical compounds” (Almac Discovery Limited, priority 2009, dated 2013)
